Assay results as given in patent US5221625A, “Cyclcic FR-900520 microbial biotransformation agent” (Merck & Co., Inc., priority 1992, dated 1993).

Tests used:
[1] = test system: mouse T lymphocytes (splenic T-cells); experiment: T-cell proliferation assay (ionomycin plus PMA induced, tritiated thymidine uptake); format: cell-based, mouse (C57Bl/6)
Description: The principle of this assay is to measure the proliferation of mouse T lumphocytes stimulated with the combination of ionomycin plus PMA.
Cells were pelleted by centrifugation at 1500 rpm for 8 minutes. Contaminating red cells were removed by treating the pellet with ammonium chloride lysing buffer (GIBCO) for 2 minutes at 4° C. Cold medium was added and cells were again centrifuged at 1500 rpm for 8 minutes. T lumphocytes were then isolated by separation of the cell suspension on nylon wool columns as follows: Nylon wool columns were prepared by packing approximately 4 grams of washed and dried nylon wool into 20 ml plastic syringes. The columns were sterilized by autoclaving at 250° F. for 30 minutes. Nylon wool columns were wetted with warm (37° C.) culture medium and rinsed with the same medium. Washed spleen cells resuspended in warm medium were slowly applied to the nylon wool. The columns were then incubated in an upright position at 37° C. for 1 hours. […]
The cell suspension was immediately distributed into 96 well flat-bottom microculture plates (Costar) at 200 μl/well. […] Radioactivity of filter discs corresponding to individual wells was measured by standard liquid scintillation counting method (Betacounter). Mean counts per minute of replicate wells were calculated and the results expressed as percent inhibition of tritiated thymidine uptake (proliferation) as follows: [formula]

[2] = test system: FK-506 immunosuppressive activity; experiment: antagonist activity versus the FK-506 immunosuppressive activity by the T-cell proliferation assay; format: cell-based; conditions: qualitative
[3] = reputed; vs cyclosporin; cited from earlier work

| Compound | reversal of inhibition of T-cell proliferation by IL2 ([1]; 50 units/ml recombinant IL2 added at initiation of culture) | inhibition of T-cell activation ([1]; ionomycin + PMA, qualitative) | antagonist activity versus FK-506 immunosuppressive activity [2] | effectiveness relative to cyclosporin [3] |
| --- | --- | --- | --- | --- |
| CC[C@@H]1C=C2COC1(O)C[C@H](O)[C@@H](C)[C@@H](/C(C)=C/[C@@H]1CC[C@@H](O)[C@H](OC)C1)OC(=O)[C@@H]1CCCCN1C(=O)C(=O)[C@]1(O)O[C@H]([C@@H](OC)C[C@@H](C)C2)[C@@H](OC)C[C@H]1C [Compound I] | reversed | positive inhibition of T-cell activation | antagonist pharmacological activity | – |
| C=CC[C@@H]1/C=C(\C)C[C@H](C)C[C@H](OC)[C@H]2O[C@@](O)(C(=O)C(=O)N3CCCC[C@H]3C(=O)O[C@H](/C(C)=C/[C@@H]3CC[C@@H](O)[C@H](OC)C3)[C@H](C)[C@@H](O)CC1=O)[C@H](C)C[C@@H]2OC [FR900506] | – | – | – | 100 times |
